Test results from patent US20080051418A1, “Arylalkanoic Acid Derivative” (priority 2004, published 2008).

SMILES | melting point [°C]
CCc1cccc(CC(=O)O)c1OCCn1cc(C(=O)NCc2ccc(C(F)(F)F)cc2)c(OC(C)C)n1 [Example 184, (3-ethyl-2-{2-[3-isopropoxy-4-({[4-(trifluoromethyl)benzyl]amino}carbonyl)-1H-pyrazol-1-yl]ethoxy}phenyl)acetic acid] | 110 to 111
CCc1cnn(CC(=O)O)c1OCCn1cc(C(=O)NCc2ccc(C(F)(F)F)cc2)c(OC(C)C)n1 [Example 185, (4-ethyl-5-{2-[3-isopropoxy-4-({[4-(trifluoromethyl)benzyl]amino}carbonyl)-1H-pyrazol-1-yl]ethoxy}-1H-pyrazol-1-yl)acetic acid] | 183 to 184
CCc1cccc(CC(=O)O)c1OCCCn1cc(C(=O)NCc2ccc(C(F)(F)F)cc2)c(OC(C)C)n1 [Example 186, (3-ethyl-2-{3-[3-isopropoxy-4-({[4-(trifluoromethyl)benzyl]amino}carbonyl)-1H-pyrazol-1-yl]propoxy}phenyl)acetic acid] | 107.5 to 108.5
CCc1cccc(CC(=O)O)c1OCCn1cc(CCOc2ncc(C(F)(F)F)cc2Cl)c(OC(C)C)n1 [Example 188, (2-{2-[4-(2-{[3-chloro-5-(trifluoromethyl)pyridin-2-yl]oxy}ethyl)-3-isopropoxy-1H-pyrazol-1-yl]ethoxy}-3-ethylphenyl)acetic acid] | 76.5 to 77.5
CC(C)c1nn(Cc2ccc(Cl)cc2Cl)cc1CCCOc1cc(CCC(=O)O)n(-c2ccccc2)n1 [Example 190, 3-(3-{3-[1-(2,4-dichlorobenzyl)-3-isopropyl-1H-pyrazol-4-yl]propoxy}-1-phenyl-1H-pyrazol-5-yl)propanoic acid] | 105 to 107
CC(C)Oc1cc(COc2cc(CCC(=O)O)n(C)n2)cc(COc2ccc(Cl)cc2Cl)c1 [Example 194, 3-[3-({3-[(2,4-dichlorophenoxy)methyl]-5-isopropoxybenzyl}oxy)-1-methyl-1H-pyrazol-5-yl]propanoic acid] | 105 to 106
CC(C)Oc1cc(CCCOc2cc(CCC(=O)O)n(C)n2)cc(COc2ccc(Cl)cc2Cl)c1 [Example 197, 3-[3-(3-{3-[(2,4-dichlorophenoxy)methyl]-5-isopropoxyphenyl}propoxy)-1-methyl-1H-pyrazol-5-yl]propanoic acid] | 116 to 120
O=C(O)CCc1cc(OCc2cc(COc3ccc(Cl)cc3Cl)cc(OCc3ccccc3)c2)nn1-c1ccccc1 [Example 198, 3-[3-({3-(benzyloxy)-5-[(2,4-dichlorophenoxy)methyl]benzyl}oxy)-1-phenyl-1H-pyrazol-5-yl]propanoic acid] | 126 to 130
CC(C)Oc1cc(COc2cc(CCC(=O)O)n(-c3ccccc3)n2)cc(COc2ncc(C(F)(F)F)cc2Cl)c1 [Example 203, 3-(3-{[3-({[3-chloro-5-(trifluoromethyl)pyridin-2-yl]oxy}methyl)-5-isopropoxybenzyl]oxy}-1-phenyl-1H-pyrazol-5-yl)propanoic acid] | 140 to 142
CCOc1cc(COc2cc(CCC(=O)O)n(-c3ccccc3)n2)cc(COc2ccc(Cl)cc2Cl)c1 [Example 204, 3-[3-({3-[(2,4-dichlorophenoxy)methyl]-5-ethoxybenzyl}oxy)-1-phenyl-1H-pyrazol-5-yl]propanoic acid] | 151.5 to 152
COCOc1cc(CCCOc2ncccc2CC(=O)O)n(Cc2ccc(Cl)cc2Cl)n1 [Example 207, (2-{3-[1-(2,4-dichlorobenzyl)-3-(methoxymethoxy)-1H-pyrazol-5-yl]propoxy}pyridin-3-yl)acetic acid] | 101 to 102

Second part, the compound after the results:

melting point [°C] | SMILES
123 to 126 | CC(C)Oc1cc(CCCOc2cc(CCC(=O)O)n(Cc3ccccc3)n2)n(Cc2ccc(Cl)cc2Cl)n1 [Example 191, 3-(1-benzyl-3-{3-[1-(2,4-dichlorobenzyl) -3-isopropoxy-1H-pyrazol-5-yl]propoxy}-1H-pyrazol-5-yl)propanoic acid]
145.5 to 147.5 | CC(C)Oc1cc(CCCOc2cc(CCC(=O)O)n(-c3ccccc3)n2)n(Cc2ccc(Cl)cc2Cl)n1 [Example 192, 3-(3-{3-[1-(2,4-dichlorobenzyl)-3-isopropoxy-1H-pyrazol-5-yl]propoxy}-1-phenyl-1H-pyrazol-5-yl)propanoic acid]
114 to 118 | CCOc1nn(Cc2ccc(Cl)cc2Cl)cc1CCCOc1nn(-c2ccccc2)cc1CCC(=O)O [Example 193, 3-(3-{3-[1-(2,4-dichlorobenzyl)-3-ethoxy-1H-pyrazol-4-yl]propoxy}-1-phenyl-1H-pyrazol-4-yl)propanoic acid]
108 to 110 | CC(C)Oc1cc(COc2cc(CCC(=O)O)n(-c3ccccc3)n2)cc(COc2ccc(Cl)cc2Cl)c1 [Example 195, 3-[3-({3-[(2,4-dichlorophenoxy)methyl]-5-isopropoxybenzyl}oxy)-1-phenyl-1H-pyrazol-5-yl]propanoic acid]
124 to 128 | CCOCc1cc(COc2cc(CCC(=O)O)n(-c3ccccc3)n2)cc(Oc2ncc(C(F)(F)F)cc2Cl)c1 [Example 199, 3-(3-{[3-{[3-chloro-5-(trifluoromethyl)pyridin-2-yl]oxy}-5-(ethoxymethyl)benzyl]oxy}-1-phenyl-1H-pyrazol-5-yl)propanoic acid]
55 to 58 | CC(C)Oc1cc(COc2ccc(C(F)(F)F)cc2)cc(COc2cc(CCC(=O)O)n(-c3ccccc3)n2)c1 [Example 202, 3-{3-[(3-isopropoxy-5-{[4-(trifluoromethyl)phenoxy]methyl}benzyl)oxy]-1-phenyl-1H-pyrazol-5-yl}propanoic acid]
